Data on four compounds can be found in patent publication US10980776B2, “Synergistic pharmaceutical combination for the treatment of squamous cell carcinoma of head and neck” (Piramal Enterprises Limited, priority 2011, dated 2021).

pIC50: −log10 of the molar value. Like-named read-outs stand apart in the source and are kept apart here.

The subject of experiment [1] is FADU cells. As to the kind of experiment: CCK-8 cytotoxicity assay, determination of inhibitory concentrations in FADU cells. The experiment is classed as cell-based, human. The note with it: 72 hr; for pIC50 / IC90: Homo sapiens. How it is done: (§1) Logarithmically growing cells were plated at a density of 3×10^3 cells/well and allowed to recover overnight. […] After 72 hours, cell toxicity was determined by CCK-8 (Cell Counting Kit-8) reagent (Dojindo Molecular Technologies, Japan); WST-8 (2-(2-methoxy-4-nitrophenyl)-3-(4-nitrophenyl)-5-(2, 4-disulfophenyl)]-2H-tetrazolium, monosodium salt) assay. In accordance with the manufacturer's instructions, 5 μl/well CCK-8 reagent was added and plates were incubated for 2 hours. The toxicity was determined by measuring the absorbance on Tecan Sapphire multi-fluorescence micro-plate reader (Tecan, Germany, GmbH) at a wavelength of 450 nm corrected to 650 nm and normalized to controls.
(§2) CCK-8 allows convenient assays using Dojindo's tetrazolium salt, WST [8[(2-(2-methoxy-4-nitrophenyl)-3-(4-nitrophenyl)-5-(2,4-disulfophenyl)-2H-tetrazolium, monosodium salt], which produces a water-soluble formazan dye upon bioreduction in the presence of an electron carrier, 1-Methoxy PMS. CCK-8 solution is added directly to the cells; no pre-mixing of components is required. CCK-8 is a sensitive nonradioactive colorimetric assay for determining the number of viable cells in cell proliferation and cytotoxicity assays. WST-8 is bio-reduced by cellular dehydrogenases to an orange formazan product that is soluble in tissue culture medium. The amount of formazan produced is directly proportional to the number of living cells. The detection sensitivity of cell proliferation assays using WST-8 is higher than assays using the other tetrazolium salts such as MIT, XTT, MTS or WST-1. Optical Density was determined at measurement wavelength of 450 nm and reference wave length of 630 nm.
(§3) The cells were seeded at a density of 3000 cells/well, in a 200 μL in tissue culture grade 96 well plate and were allowed to recover for 24 hrs in a humidified 5%±0.2 CO2 incubator at 37° C.±0.5° C. […] The final DMSO concentration was 0.5% in wells. Plates were incubated for 48 hrs in humidified 5%±0.2 CO2 incubator at 37±0.5° C. After 48 hrs the plates were removed from CO2 incubator and 5 μL of Cell counting Kit (CCK-8) per well was added. The same plate was kept at 37° C. for 3 hrs, and allowed to come to room temperature. The absorbance at a wavelength of 450 nm was read on Tecan safire reader. The percent cytotoxicity was calculated using the following formula.

Experiment [2] has as its system Detroit-562 cells. As to the kind of experiment: CCK-8 cytotoxicity assay, determination of inhibitory concentrations in Detroit-562 cells. The class given is cell-based. Particulars: 72 hr; for pIC50 / IC90: Homo sapiens. The procedure: as §1, §2, §3
Experiment [3] relates to FADU cells. Briefly: cells. Particulars: Homo sapiens.
In experiment [4] the test system is SCC-25 cells. Briefly: Combination studies (single and sequential combination dosing), % cytotoxicity in SCC-25 cells. Particulars: Homo sapiens, SCC-25, SCC-25. How it is done:
as §1, §2
Sorafenib in the following dose of final concentration 0.18 μM and compound A in the following doses of final concentration 0.1 μM, 0.4 μM and 4.1 μM were analyzed in single dose and in all possible combinations of the dose range for the two anticancer agents mentioned above. The sequence of treatment is as follows; the SCC-25 cells were treated with sorafenib for 0 to 24 hrs. At the end of 24 hrs the cells were washed two times with plain MEM (minimum essential media) medium. Fresh MEM with 10% serum (200 μL/well) was added, followed by treatment with compound A from 24 hrs to 96 hrs.
Sorafenib in the following dose of final concentration 0.18 μM and compound B in the following doses of final concentration 0.2 μM, 1.1 μM and 4.8 μM were analyzed in single dose and in all possible combinations of the dose range for the two anticancer agents mentioned above. The sequence of treatment is as follows; the SCC-25 cells were treated with sorafenib for 0 to 24 hrs. At the end of 24 hrs the cells were washed two times with plain MEM medium. Fresh MEM with 10% serum (200 μL/well) was added, followed by treatment with compound B from 24 hrs to 96 hrs.
Lapatinib in the following dose of final concentration 0.2 μM and compound A in the following doses of final concentration 0.2 μM, 0.5 μM and 3.3 μM were analyzed in single dose and in all possible combinations of the dose range for the two drugs mentioned above. The sequence of treatment is as follows; the SCC-25 cells were treated with lapatinib for 0 to 24 hrs. At the end of 24 hrs the cells were washed two times with plain MEM medium. Fresh MEM with 10% serum (200 μL/well) was added, followed by treatment with compound A from 24 hrs to 96 hrs.
Lapatinib in the following dose of final concentration 0.2 μM and compound B in the following doses of final concentration 0.2 μM, 1.1 μM and 4.8 μM were analyzed in single dose and in all possible combinations of the dose range for the two drugs mentioned above. The sequence of treatment is as follows; the SCC-25 cells were treated with lapatinib for 0 to 24 hrs. At the end of 24 hrs the cells were washed two times with plain MEM medium. Fresh MEM with 10% serum (200 μL/well) was added, followed by treatment with compound A from 24 hrs to 96 hrs.

Experiment [5] relates to SCC-25 cells. Briefly: CCK-8 cytotoxicity assay, determination of inhibitory concentrations in SCC-25 cells. The experiment is classed as cell-based. Particulars: for IC90 / pIC50: Homo sapiens. The procedure:
as §1, §2, §3
(Tetrazolium dyes change colour on reduction, which living cells bring about.)

Experiment [6] deals with Detroit-562 cells. As to the kind of experiment: Combination studies (single and sequential combination dosing), % cytotoxicity in Detroit-562 cells. Particulars: Homo sapiens, Detroit 562, Detroit-562. How it is done: as §1, §2
Sorafenib in the following dose of final concentration 1.8 μM and compound A in the following doses of final concentration 0.5 μM, 1.3 μM and 12.1 μM were analyzed in single dose and in all possible combinations of the dose range for the two anticancer agents mentioned above. The sequence of treatment is as follows; Detroit-562 cells were treated with sorafenib for 0 to 24 hrs. At the end of 24 hrs the cells were washed two times with plain MEM medium. Fresh MEM with 10% serum (200 μL/well) was added, followed by treatment with compound A from 24 hrs to 96 hrs.
Sorafenib in the following dose of final concentration 1.8 μM and compound B in the following doses of final concentration 2.7 μM, 14.1 μM and 25.2 μM were analyzed in single dose and in all possible combinations of the dose range for the two anticancer agents mentioned above. The sequence of treatment is as follows; the Detroit-562 cells were treated with sorafenib for 0 to 24 hrs. At the end of 24 hrs the cells were washed two times with plain MEM medium. Fresh MEM with 10% serum (200 μL/well) was added, followed by treatment with compound B from 24 hrs to 96 hrs.
Lapatinib in the following dose of final concentration 1 μM and compound A in the following doses of final concentration 0.5 μM, 1.3 μM and 12.1 μM were analyzed in single dose and in all possible combinations of the dose range for the two anticancer agents mentioned above. The sequence of treatment is as follows; the Detroit-562 cells were treated with lapatinib for 0 to 24 hrs. At the end of 24 hrs the cells were washed two times with plain MEM medium. Fresh MEM with 10% serum (200 μL/well) was added, followed by treatment with compound A from 24 hrs to 96 hrs.
Lapatinib in the following dose of final concentration 1.0 μM and compound B in the following doses of final concentration 2.7 μM, 14.1 μM and 25.2 μM were analyzed in single dose and in all possible combinations of the dose range for the two drugs mentioned above. The sequence of treatment is as follows; the Detroit-562 cells were treated with lapatinib for 0 to 24 hrs. At the end of 24 hrs the cells were washed two times with plain MEM medium. Fresh MEM with 10% serum (200 μL/well) was added, followed by treatment with compound A from 24 hrs to 96 hrs.

In the experiment with FADU cells [1], `CC(=O)O[C@@]12CO[C@@H]1C[C@H](O)[C@@]1(C)C(=O)[C@H](O)C3=C(C)[C@@H](OC(=O)[C@H](O)[C@@H](NC(=O)OC(C)(C)C)c4ccccc4)C[C@@](O)([C@@H](OC(=O)c4ccccc4)[C@H]21)C3(C)C` [Docetaxel] showed an IC10 of 0.003 µM, an IC30 of 0.06 µM, an IC70 of 0.71 µM and a negative logarithm of the IC50 (pIC50) of 6.80. In addition, in the experiment on FADU cells [1], the IC90 came out at 35.6 µM. Also, in the experiment with Detroit-562 cells [2], the IC10 was found to be 0.009 µM, the 30% effect concentration (IC30) amounted to 0.3 µM, the IC70 is 8.7 µM and the negative logarithm of the IC50 (pIC50) was 6.07. Further, the concentration for an effect of 90% (IC90) in the experiment on Detroit-562 cells [2] was found to be 21.8 µM.

In the experiment with FADU cells [1], `C#Cc1cccc(Nc2ncnc3cc(OCCOC)c(OCCOC)cc23)c1` [Erlotinib] had an IC30 of 0.9 µM, an IC70 of 30.7 µM, a negative logarithm of the IC50 (pIC50) of 4.99 and an IC90 of 63 µM. For the same compound, in the experiment with Detroit-562 cells [2], the IC30 was 1.4 µM, the 70% effect concentration (IC70) was found to be 6.3 µM, the negative logarithm of the IC50 (pIC50) is 5.64 and it took 10.7 µM to reach the 90% level (IC90).

Regarding `CS(=O)(=O)CCNCc1ccc(-c2ccc3ncnc(Nc4ccc(OCc5cccc(F)c5)c(Cl)c4)c3c2)o1` [Lapatinib, N-(3-chloro-4-{[(3-fluorophenyl)methyl]oxy}phenyl)-6-[5-({[2-(methylsulfonyl)ethyl]amino}methyl)-2-furanyl]-4-quinazolinaminebis(4-methylbenzenesulfonate)monohydrate], the cytotoxicity at 0.8 µM with FADU cells [3] (single agent at IC30 (lapatinib 0.8 μM; compound A 0.2 μM)) and in the experiment on FADU cells [3] (single agent at IC30 (lapatinib 0.8 μM; compound B 2.3 μM)) was 19% each time. The concentration for an effect of 30% (IC30) came to 0.8 µM in the experiment with FADU cells [1]; 1.0 µM in the experiment with Detroit-562 cells [2]; 0.2 µM in the experiment on SCC-25 cells [5] (SCC-25 cells, 72 hr). Also, the concentration for an effect of 70% (IC70) is 8.7 µM in the experiment on FADU cells [1]; 7.6 µM in the experiment on Detroit-562 cells [2]; 3.3 µM with SCC-25 cells [5] (SCC-25 cells, 72 hr). Moreover, the pIC50 with FADU cells [1] was 5.59; with Detroit-562 cells [2], 5.41; with SCC-25 cells [5] (SCC-25 cells, 72 hr, read-out: IC50) it was 6.30. In addition, the IC90 with FADU cells [1] is 14.3 µM; with Detroit-562 cells [2] it was 12.6 µM; with SCC-25 cells [5] (SCC-25 cells, 72 hr) it was 9.9 µM. The cytotoxicity at 0.2 µM with SCC-25 cells [4] (single agent at IC30 (lapatinib 0.2 μM; compound A 0.2 μM)) and in the experiment on SCC-25 cells [4] (single agent at IC30 (lapatinib 0.2 μM; compound B 0.2 μM)) was 17% in each case. For the same compound, the cytotoxicity at 1 µM in the experiment with Detroit-562 cells [6] (single agent at IC30 (lapatinib 1 μM; compound A 0.5 μM)) and in the experiment on Detroit-562 cells [6] (single agent at IC30 (lapatinib 1.0 μM; compound B 2.7 μM)) was 16% in each case.

With `CNC(=O)c1cc(Oc2ccc(NC(=O)Nc3ccc(Cl)c(C(F)(F)F)c3)cc2)ccn1.Cc1ccc(S(=O)(=O)O)cc1` [Sorafenib, 4-(4-{3-[4-chloro-3-(trifluoromethyl)phenyl]ureido}phenoxy)N^2-methylpyridine-2-carboxamide-4-methylbenzenesulfonate], the cytotoxicity at 3.9 µM in the experiment with FADU cells [3] (single agent at IC30 (sorafenib 3.9 μM; compound A 0.2 μM)) and with FADU cells [3] (single agent at IC30 (sorafenib 3.9 μM; compound B 2.3 μM)) was 21% in each case. Besides, the IC30 with FADU cells [1] turned out to be 3.9 µM; with Detroit-562 cells [2], 1.8 µM; in the experiment on SCC-25 cells [5] (SCC-25 cells, 72 hr), 0.18 µM. In addition, the IC70 in the experiment on FADU cells [1] worked out at 14.8 µM; with Detroit-562 cells [2], 11.2 µM; in the experiment on SCC-25 cells [5] (SCC-25 cells, 72 hr) it was 6.8 µM. In addition, the pIC50 is 5.08 with FADU cells [1]; 5.21 in the experiment with Detroit-562 cells [2]; 5.57 with SCC-25 cells [5] (SCC-25, 72 h). Moreover, the concentration for an effect of 90% (IC90) was 30.6 µM in the experiment on FADU cells [1]; 15.3 µM in the experiment on Detroit-562 cells [2]; 11.7 µM with SCC-25 cells [5] (SCC-25 cells, 72 hr). Further, the cytotoxicity at 0.18 µM with SCC-25 cells [4] (single agent at IC30 (sorafenib 0.18 μM; compound A 0.1 μM)) and with SCC-25 cells [4] (single agent at IC30 (sorafenib 0.18 μM; compound B 0.2 μM)) was 13% each time. For the same compound, the values for the cytotoxicity at 1.8 µM in the experiment on Detroit-562 cells [6] (single agent at IC30 (sorafenib 1.8 μM; compound A 0.5 μM)) and in the experiment on Detroit-562 cells [6] (single agent at IC30 (sorafenib 1.8 μM; compound B 2.7 μM)) were 14% and 13%, respectively.

As a reminder, the IC10 is the point of the concentration-response curve where the effect stands at 10%. Usually IC30 stands for the point of the concentration-response curve where the effect stands at 30%. What is called IC70 is the concentration at which the effect reaches the 70% level. A higher IC70 goes with a need for much substance. In general, pIC50 refers to −log10 of the IC50, conventionally taken in molar units. One may read the IC90 as the concentration at which the effect reaches the 90% level.
